Test results: paper PMC10791743, “Selective CK1α degraders exert antiproliferative activity against a broad range of human cancer cell lines” (Nature Communications, 2024)
Values after ≈ are worked out from the molar mass of the structure shown. Values joined by “and” are separate entries in the source; they are usually repeats but may differ in a detail not shown here. Equal values may be shown once.

Key:
[1] = Aqueous solubility assay; assay type: physicochemical; details: DPBS buffer
Method: page 30: ADME Methods Aqueous solubility assay: Solubility assays were conducted using a Biomek FX lab automation workstation (Beckman Coulter, Inc., Fullerton, CA) and μSOL Evolution software (pION Inc., Woburn, MA). In a 96-well microplate (Cat. No: 3363, Corning Incorporated, Salt Lake, UT), 10 μL of a 10 mM test compound stock in DMSO was added to 190 μL 1-propanol (Thermo Scientific, spectroscopy, Cat. No: 434360010, Fair Lawn, NJ) to create a reference stock plate. From this reference stock plate, 5 μL solutions were mixed with 70 μL 1-propanol and 75 μL Dulbecco's Phosphate Buffered Saline (DPBS, 1X, GibcoTM, Cat. No: 14190-144, Thermo Fisher Scientifics, Waltham, MA) to generate the reference plate (high sensitivity UV plate, Cat. No: 110286, pION Inc., Woburn, MA). In a 96-well storage plate (Cat. No: 201276-100, Agilent, Santa Clara, CA), 6 μL of a 10 mM test compound stock was added to 600 μL buffer, mixed, sealed, and incubated at room temperature for 18 hours. […] UV spectra of the reference and sample plates were then read, and calculations based on the area under the curve (AUC) of the UV spectra were performed using μSOL Evolution software. […] The medium in the wells was changed every other day, and the trans epithelial electrical resistance (TEER) value was measured

[2] = target: T1, IKZF2 (Homo sapiens, UniProt Q96SW2+Q9UKS7); test: IKZF2 immunoblotting in MOLM-13 cells; assay type: cell-based
T1 construct: endogenous in cells; host or cells: MOLM-13
T1 sequence (Q9UKS7 whole entry): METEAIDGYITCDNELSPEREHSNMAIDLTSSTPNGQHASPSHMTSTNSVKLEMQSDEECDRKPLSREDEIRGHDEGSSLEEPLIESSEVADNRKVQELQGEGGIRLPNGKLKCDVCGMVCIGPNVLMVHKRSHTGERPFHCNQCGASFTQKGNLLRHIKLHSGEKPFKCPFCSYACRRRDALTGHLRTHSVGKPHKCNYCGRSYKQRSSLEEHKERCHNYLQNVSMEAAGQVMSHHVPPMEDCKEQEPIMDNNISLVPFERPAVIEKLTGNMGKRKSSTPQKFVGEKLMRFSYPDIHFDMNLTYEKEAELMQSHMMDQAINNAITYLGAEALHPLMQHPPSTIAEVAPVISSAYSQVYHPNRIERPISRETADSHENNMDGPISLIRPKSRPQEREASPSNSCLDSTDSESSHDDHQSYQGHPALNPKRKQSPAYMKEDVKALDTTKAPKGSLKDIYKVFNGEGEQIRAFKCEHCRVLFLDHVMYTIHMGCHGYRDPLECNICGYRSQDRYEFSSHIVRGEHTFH
T1 sequence (Q96SW2 whole entry): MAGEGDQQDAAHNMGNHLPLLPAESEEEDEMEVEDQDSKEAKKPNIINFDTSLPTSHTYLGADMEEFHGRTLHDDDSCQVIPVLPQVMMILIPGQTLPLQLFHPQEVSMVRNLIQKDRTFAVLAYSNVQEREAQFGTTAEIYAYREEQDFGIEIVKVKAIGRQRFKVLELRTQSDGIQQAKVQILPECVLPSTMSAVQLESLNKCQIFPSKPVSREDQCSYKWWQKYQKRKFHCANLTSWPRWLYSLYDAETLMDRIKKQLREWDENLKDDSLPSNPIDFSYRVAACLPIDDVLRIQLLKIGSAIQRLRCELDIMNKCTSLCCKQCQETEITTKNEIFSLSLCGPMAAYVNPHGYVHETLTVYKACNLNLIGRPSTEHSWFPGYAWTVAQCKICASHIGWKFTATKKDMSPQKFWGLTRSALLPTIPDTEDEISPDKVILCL
T1 sequence (Q16531 whole entry partner): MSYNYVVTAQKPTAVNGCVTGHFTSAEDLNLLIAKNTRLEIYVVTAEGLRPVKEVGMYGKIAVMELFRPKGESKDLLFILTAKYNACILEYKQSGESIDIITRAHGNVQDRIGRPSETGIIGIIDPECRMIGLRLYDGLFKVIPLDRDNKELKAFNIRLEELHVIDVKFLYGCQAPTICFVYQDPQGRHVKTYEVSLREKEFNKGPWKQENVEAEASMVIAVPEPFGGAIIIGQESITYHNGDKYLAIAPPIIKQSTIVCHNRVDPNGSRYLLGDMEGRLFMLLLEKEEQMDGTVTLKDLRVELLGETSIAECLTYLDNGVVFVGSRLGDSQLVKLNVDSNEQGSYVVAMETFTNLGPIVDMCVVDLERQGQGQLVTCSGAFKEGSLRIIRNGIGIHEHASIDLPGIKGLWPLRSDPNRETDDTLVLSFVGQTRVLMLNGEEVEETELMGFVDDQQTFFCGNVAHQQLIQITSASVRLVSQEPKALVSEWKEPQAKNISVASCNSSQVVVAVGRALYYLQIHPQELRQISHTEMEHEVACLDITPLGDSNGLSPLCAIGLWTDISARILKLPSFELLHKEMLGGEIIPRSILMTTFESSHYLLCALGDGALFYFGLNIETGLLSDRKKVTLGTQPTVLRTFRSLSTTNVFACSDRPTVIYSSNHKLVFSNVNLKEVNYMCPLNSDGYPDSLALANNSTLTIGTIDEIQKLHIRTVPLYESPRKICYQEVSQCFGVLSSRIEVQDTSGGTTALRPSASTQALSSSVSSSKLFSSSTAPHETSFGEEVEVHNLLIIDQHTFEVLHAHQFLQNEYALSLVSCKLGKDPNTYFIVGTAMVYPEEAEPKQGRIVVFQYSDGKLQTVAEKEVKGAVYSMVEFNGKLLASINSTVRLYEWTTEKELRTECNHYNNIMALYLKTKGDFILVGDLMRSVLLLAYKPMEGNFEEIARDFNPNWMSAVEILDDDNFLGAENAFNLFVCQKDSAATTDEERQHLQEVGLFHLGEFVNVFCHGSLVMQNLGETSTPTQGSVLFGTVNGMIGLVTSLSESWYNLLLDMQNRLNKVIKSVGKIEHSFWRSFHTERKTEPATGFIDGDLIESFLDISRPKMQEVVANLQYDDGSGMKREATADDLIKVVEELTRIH
Method: We further tested the specificity of SJ3149 considering that previously reported CK1α degraders also lead to degradation of IKZF2[26]. Even though there was a negligible change in IKZF2 protein level in our proteomics studies, we sought to confirm this observation by immunoblotting. In a similar experiment to those shown in Fig. 2b, MOLM-13 cells were treated with SJ3149 for 4 h at increasing concentrations ranging from 1 nM to 10 µM and analyzed by immunoblotting to quantify IKZF2 and CK1α proteins. While at 4 nM concentration SJ3149 induced 50% degradation of CK1α protein, IKZF2 levels were reduced by only ~40% at the highest dose (10 μM), confirming the selectivity of SJ3149 for CK1α over IKZF2 (Supplementary Fig. 6d). These collective data support the claim that CK1α degradation is responsible for the observed cellular phenotypes induced by SJ3149 treatment.
Frozen pellets of ~1 million cells were lysed in 150 µl of SDS lysis buffer (60 mM Tris/HCl pH 7, 10% glycerol, 2% SDS, 5% beta-mercaptoethanol, 0.02% bromophenol blue, 0.5% protease and phosphatase inhibitor cocktail (Sigma Aldrich)). When cells were resuspended, samples were heated for 3 min at 99 °C then put on ice. Samples were then fragmented by sonication for 10 0.5-s pulses (550 Sonic Dismembrator, Fisher Scientific) and heated again at 99 °C for 2 min. 15 μl of each sample was added to the wells of a 4–20% polyacrylamide gel (Bio-Rad). A mixture of 2 μl of Precision Plus Protein Unstained Standards and 2 μl of Precision Plus Protein All Blue Standards (Bio-Rad) was used for the size marker. After electrophoresis, gels were transferred to nitrocellulose membrane using the Bio-Rad Trans-Blot Turbo system on the mixed molecular weight setting. Membranes were blocked for 1 h in Li-Cor Intercept Blocking Buffer then probed overnight at 4 °C with primary antibody, at 1:1000 dilution or 1:2000 dilution for actin, in Li-Cor Intercept Antibody Diluent. The following morning, membranes were washed three times for 5 min with TBS + 0.05% Tween-20, probed with fluorescent secondary antibodies (goat anti-rabbit IRDye 800CW and goat anti-mouse IRDye 680RD, Li-Cor) for 1 h at room temperature in the dark at 1:10,000 dilution, and washed again 3 times. Blots were imaged with the Li-Cor Odyssey CLx and analyzed using Image Studio Version 5.2.
Primary antibodies used: rabbit anti-CK1α, ab206652, clone EPR19824, Abcam rabbit anti-p21, 2947S, clone 12D1, Cell Signaling Technology rabbit anti-Helios (IKZF2), 42427, clone D8W4X, Cell Signaling Technology mouse anti-beta actin, 3700S, clone 8H10D10, Cell Signaling Technology

[3] = western blot quantification, relative to DMSO

Q: Which results are given for O=C1CCC(N2Cc3cc(Nc4noc5ccccc45)ccc3C2=O)C(=O)N1 (stereo not drawn) [SJ3149]?
A: solubility at 18 h [1]: 36 µM (≈ 13.5 µg/mL); IKZF2 level reduction ([2]; MOLM-13, 10 μM, 4 h): ~ 40%; IKZF2 western blot quantification ([2]; SJ3149 0.001 uM, relative to DMSO): 1.093 and 0.9655 and 0.8978; IKZF2 western blot quantification ([2]; SJ3149 0.01 uM, relative to DMSO): 0.8205 and 1.143 and 0.8035; IKZF2 western blot quantification ([2]; SJ3149 0.1 uM, relative to DMSO): 0.5925 and 0.7587 and 0.8297; IKZF2 western blot quantification ([2]; SJ3149 1 uM, relative to DMSO): 0.5412 and 0.7758 and 0.64; IKZF2 western blot quantification ([2]; SJ3149 10 uM, relative to DMSO): 0.4999 and 0.6664 and 0.6326; Bottom (sigmoidal 4PL fit) of IKZF2 protein level [2, 3]: 0.61; Top (sigmoidal 4PL fit) of IKZF2 protein level [2, 3]: 1.002
